Measurements from patent US20080286339A1, “METHODS AND DEVICES FOR THE SUSTAINED RELEASE OF MULTIPLE DRUGS” (priority 2003, published 2008).
Where two headings read alike, the source gives them in different places.

Legend:
[1] = test system: endogenous luteinizing hormone (LH); experiment: Intravaginal administration of GnRH/hydrogel to Rhesus monkeys, serum endogenous LH (Example 7); assay type: in vivo; conditions: 10 mg GnRH in 2 g hydrogel, 48 hours
[2] = assay type: physicochemical; conditions: for In vitro release kinetics: EVA ring, 70:30 PBS:EtOH pH 6, 37° C., 14 to 21 day period
Protocol: At the indicated time points media was collected and measured by HPLC on an Agilent 1100 Series HPLC (Agilent, Forest City, Calif.). […] Results were calculated based on the area under the curve compared to a 5 point calibration curve. Results were expressed as the cumulative release in μg released over the course of the experiment.

[3] = assay type: in vivo; conditions: for Duration of release from the ring: delayed release ring
Protocol: The rate of hydration of the intravaginal device depends on many factors, including the rate of water penetration into the polymer. The rate of water penetration can be modulated by the osmotic pressure within the polymer. The osmotic pressure can be modulated by adding salt (NaCl, KCl, etc) to the formulation of the drug.
Estradiol and GnRH can be formulated as described herein. Yet, additional salt is added (300 mmol).

[4] = estradiol administered at 100 μg/day; cited from earlier work
[5] = Expected characteristics of Ring A / Ring B formulations (Table II); assay type: in vivo; conditions: 21 days of release
Source text: In an alternate embodiment of this aspect of the invention, the two formulations described above (the LHRH/estrogenic steroid formulation and LHRH/estrogenic/progestational steroid formulation) are combined in one drug delivery device, which is designed to remain in the vagina of the female for the entire menstrual cycle. In this embodiment, the drug delivery device comprises at least one cylindrical unitary segment per hormonal formulation, or, alternatively, at least one cylindrical unitary segment per active ingredient (i.e., LHRH, sex steroid, or sex steroid modulator). The choice of polymeric material and the ratio of polymeric material to LHRH/sex steroid/sex steroid modulator are preselected for each segment to provide the appropriate release kinetics for the individual steroids and/or steroidal formulations. By selecting the polymeric material based on its release properties and adjusting the ratio of polymeric material to drug, the method of the present invention provides the pre-set timed delivery of LHRH, estrogenic steroid, and progestational steroid at the appropriate phase of the menstrual cycle to achieve the desired contraceptive effect. For example, this “combined” device would release LHRH and/or its agonists or antagonists continuously for 30 days in combination with an estrogenic compound.

[6] = endogenous, normal menstrual cycle, cited from earlier work; for Tmax: phase of cycle
[7] = Effect of cellulosics (Methocel) on in vitro release from EVA (Example 5); assay type: physicochemical; conditions: EVA with 5% or 25% Methocel, PBS pH 6.10:ethanol 70:30, 37° C.
Source text: Also, varying amounts of a commercially available cellulosic, Methocel® (Dow Chemicals, Co., Midland, Mich.) were incorporated into the mixtures to evaluate the effect of cellulosics on release kinetics. […] The solutions were slowly emulsified into a methylene chloride solution containing EVA. The resulting emulsions were solvent-casted into a mold, which was then cooled on dry ice. Following sublimation, the […] were cut into 1 cm×1 cm samples, and placed in scintillation vials, to which 0.1 M phosphate buffered saline (pH 6.10) and ethanol were added in a 70:30 ratio. The vials were placed in a 37° C. incubator on a shaker rotating at 100 RPM. The buffer solution was replaced at predetermined time points. […] Next, the release kinetics were determined by plotting the cumulative release amounts as a function of time.

[8] = In vitro release from double-sided EVA disc (Example 6); assay type: physicochemical; conditions: 70:30 PBS:EtOH pH 6, 37° C.
Protocol: Also, the EVA/drug mixtures were combined to form a double-sided disc, comprising estradiol on one side and progesterone on the other. After drying, the discs were evaluated for their release kinetics. […] At the indicated time points, 100% of the media was collected for measurement and 100 ml of release media was replaced. The media was measured by an Agilent 1100 Series HPLC (Agilent). […] Results were calculated based on the area under the curve compared to a 5 point calibration curve and depicted in FIG. 7 as the cumulative percent released.

| Duration of release from the ring [3] | Drug Circulation Level ([5]; Ring A) | Drug Circulation Level ([5]; Ring B) | In vitro release kinetics with addition of Methocel [7] | Time after which release begins ([3]; segment without salt) | In vitro release kinetics [8] | Molecule | Effect on endogenous LH levels [1] | Serum level in the circulation that the delivery rates are capable of producing [2] | In vitro release kinetics [2] | Time for which the ring sustains adequate flux rates ([2]; not told) | Serum level produced [4] | Cmax [6] | Steady State Serum Concentration [6] | Tmax [6] | T1/2 [6] |
| --- | --- | --- | --- | --- | --- | --- | --- | --- | --- | --- | --- | --- | --- | --- | --- |
|  |  |  |  |  |  | p-Glu-His-Trp-Ser-Tyr-Gly-Leu-Arg-Pro-Gly-NH2 [GnRH] | produces elevated levels of endogenous LH | 3 to 6 ng/mL | stable zero order release kinetics | at least 21 days |  |  |  |  |  |
| 28 days |  |  |  |  |  | CCNC(=O)[C@@H]1CCCN1C(=O)[C@H](CCCNC(=N)N)NC(=O)[C@H](CC(C)C)NC(=O)[C@@H](Cc1c[nH]c2ccccc12)NC(=O)[C@H](Cc1ccc(O)cc1)NC(=O)[C@H](CO)NC(=O)[C@H](Cc1c[nH]c2ccccc12)NC(=O)[C@H](Cc1c[nH]cn1)NC(=O)[C@@H]1CCC(=O)N1 [D-Trp6-Pro9-Net-GnRH] |  |  |  |  |  |  |  |  |  |
|  | 100 pg/mL | 100 pg/mL |  |  |  | C[C@]12CC[C@@H]3c4ccc(O)cc4CC[C@H]3[C@@H]1CC[C@@H]2O [Estradiol, estradiol] |  |  |  |  | approximately 100 pg/ml | 0.5 ng/mL | 50 to 500 pg/mL | Midcycle |  |
| 4 days |  | 6000 pg/mL | pseudo zero order release kinetics | 14 days | independent bi-phasic release kinetics | CC(=O)[C@H]1CC[C@H]2[C@@H]3CCC4=CC(=O)CC[C@]4(C)[C@H]3CC[C@]12C [Progesterone, progesterone] |  |  | stable zero order release kinetics |  |  | 35 ng/mL | 2000 to 6000 pg/mL | Midluteal | 12 h |
